Results on two compounds are retold here after patent US20090197906A1, “REVERSION OF MALIGNANT PHENOTYPE WITH 9-HYDROXY ELLIPTICINE DERIVATIVES” (priority 2006, published 2009).

For orientation: IC50 means the concentration that inhibits the measured activity by half.

Data set [1] concerns actin in NIH 3T3 EF extract. The data set is described as follows: fluorescence anisotropy assay of actin dynamics in cell extract. In kind it is biochemical. As to conditions: for k (rate constant of F-actin elongation) / Δ mA (anisotropy enhancement, steady state F-actin): malignant NIH 3T3 EF extract. As for the experimental part:
Actin dynamics is known to be impaired in tumor cells with a subsequent decrease of F-actin to G-actin ratio. Actin dynamics has been quantified in tumor cell extracts using the fluorescence anisotropy assay which gains access to rate constant of F-actin elongation (k) and steady state concentration of F-actin (Δ mA).
All reactions were carried out at 22° C. and fluorescence anisotropy signal was recovered at 520 nm with excitation at 490 nm in a Beacon 2000 (Panvera). Alexa 488 actin (Molecular Probes) was centrifuged at 35 000 rpm for 2 h at 4° C. to sediment residual actin polymers in a Beckman L5-50B ultracentrifuge. […] 80% of the supernatant was withdrawn; the concentration was defined through fluorescence measurements (excitation at 490 nm and signal recovering at 520 nm). The ultracentrifuged actin concentration was calculated using the non ultracentrifuged Alexa 488 actin as a standard. The supernatant was aliquoted, frozen in liquid nitrogen and stored at −80° C.
Before experiment, an aliquot of ultracentrifuged Alexa 488 actin was diluted to a concentration of […] in G buffer (5 mM Tris pH 8.1, 2 mM CaCl2, 0.2 mM DTT, 0.2 mM ATP). 3 μl of diluted Alexa 488 actin was mixed in 168 μl of G buffer and actin monomers anisotropy was measured before the addition of 4 μl of polymerisation buffer (2.5 M KCl, 50 mM MgCl2, 25 mM ATP), 5 μl of G buffer in the presence or in the absence of the chemical molecule and 20 μl cellular extract of normal NIH 3T3 cells or malignant NIH 3T3 EF cells at 2 mg/ml. The final concentration of Alexa 488 actin was 4 nM. The ratio of unlabelled to labelled actin was about 140/4 nM. Measurements were made each 10 sec for 200 sec. Actin monomers anisotropy value was subtracted, yielding the anisotropy enhancement (Δ mA). The data were fitted with the equation Y=Ymax. [1−exp(−K.X)]. The curves start at zero and ascend to Ymax that corresponds to the steady state anisotropy value (Δ mA eq), with a rate constant K. Y is anisotropy values of which monomers anisotropy is subtracted and X is the time.

Data set [2] concerns B16F10. The data set can be described thus: MTT cell proliferation assay. Type of data set: cell-based, murine. As to the method: Growth studies were performed using the [3-(4,5 dimethylthiazol-2-yl)-2,5-diphenyl-2H-tetrazolium bromide] (Sigma) calorimetric assay.
About 1500 to 5000 cells, according to the cell line, were seeded in a 96-well culture plate 24 hours before adding increasing concentrations of BA016DD537 or BA016FZ539. The plate was incubated at 37° C. for 3 days. 10 μl MTT stock solution (5 mg/ml in phosphate buffer saline) was added to 90 μl of complete medium in each well, the incubation was continued for 3 h at 37° C. 100 μl of lysis buffer (10% sodium dodecyl sulfate, 1% HCl 1N; pH 4.7) was added to each well, and the plate was incubated overnight. The absorbance was determined using an Integrated EIA Management System (Labsystem) at a wavelength of 570 nm. The proliferation rates were calculated from the OD readings using the untreated cells as 100%.
(§1) Growth studies were performed using both MTT and SRB calorimetric assay (Sigma). About 1500 B16F10 or 3000 pancreatic cells (MIA PaCa-2 and PANC1) were seeded in a 96-well culture plate before adding increasing concentrations of monomesylate or bimesylate.
(§2) The plates were incubated at 37° C. for 3 days and then were treated depending on SRB or MTT protocols (see material and methods).
(§3) In these two cases, the proliferation rates were calculated from the OD readings using the untreated cells as 100%.
(In general: Tetrazolium assays rely on reduction of a dye to a coloured formazan, in cell work by metabolically active cells.)

The test system of data set [3] is B16F10. The data set is described as follows: cloning assay in methylcellulose (colony formation). Type of data set: cell-based, murine. As for the experimental part:
Cells were embedded in complete culture medium supplemented with 0.8% methylcellulose (Methocel MC4000, Sigma), seeded in triplicate into 35-mm dishes (Greiner Bio-one Ref 627102, Dominique Dutscher) and incubated at 37° C. in a humidified 5% CO2 atmosphere. The number of cells seeded was 1000 cells per dish. After one to three weeks, according to cell lines, macroscopic clones were counted.
Cells were embedded in complete culture medium supplemented with 0.8% methyl-cellulose (Methocel MC4000, Sigma), seeded in triplicate into 35-mm dishes and incubated at 37° C. in a humidified 5% CO2 atmosphere. The number of cells seeded was 1000 cells per dish. After 9 days, macroscopic clones of murine melanoma cell line B16F10 were counted.

In data set [4] the test system is B16BL6 melanoma cell line. The data set is described as follows: MTT cell viability, combination with retinoids. In kind it is cell-based. As for the experimental part:
The ex vivo cell viability inhibition by BA016DD537 in the presence of the retinoids 13CRA and ATRA was tested against B16BL6 melanoma cell line using the 3-(4,5 dimethylthiazol-2-yl)-2,5-diphenyl-2H-tetrazolium bromide (MTT) calorimetric assay.
About 1000 cells were seeded in a 96-well culture plate 24 hours before adding increasing concentrations of BA016DD537, from 1 pM to 100 pM, in the absence or in the presence of 10 nM of retinoids. The plate was incubated at 37° C. for 3 days. 10 μl MTT stock solution (5 mg/ml in phosphate buffer saline) was added to 90 μl of complete medium in each well, the incubation was continued for 3 h at 37° C. 100 μl of lysis buffer (20% sodium dodecyl sulfate, 10 mM HCl, 1×PBS) was added to each well, and the plate was incubated overnight. The absorbance was determined using an Integrated EIA Management System (Labsystem) at a wavelength of 570 nm.

Another data set has as its system Mia Paca-2. The data set is described as follows: SRB (sulforhodamine B) cell proliferation assay. In kind it is cell-based, human. As for the experimental part:
(§4) After an incubation period, cell monolayers are fixed with 10% (wt/vol) trichloroacetic acid and stained for 30 min, after which the excess dye is removed by washing repeatedly with 1% (vol/vol) acetic acid. The protein-bound dye is dissolved in 10 mM Tris base solution for optic density determination (OD) at 510 nm using a microplate reader.
(§5) The proliferation rates were calculated from the OD readings using the untreated cells as 100%.
(§6) The effects BA016FZ539 on the growth of MIA PaCa-2 and PANC-1 pancreatic cells were tested over a range of concentrations from 500 μM to 0.16 μM and measured by using the SRB calorimetric assay.
(§7) About 5000 MIA PaCa-2 or PANC-1 cells were seeded in a 96-well culture plate while adding increasing concentrations of BA016FZ539.
as §1, §2, §3

The subject of another data set is PANC-1. The data set is described as follows: SRB (sulforhodamine B) cell proliferation assay. In kind it is cell-based, human. As to the method: as §4, §5, §6, §7, §1, §2, §3

Like-named read-outs stand apart in the source and are kept apart here.

Consider `Cc1c2cc[n+](CCN3CCCCC3)cc2c(C)c2c1[nH]c1ccc(O)cc12.[Cl-]` [BA016DD537, 2-(β-piperidinoethyl)-9-hydroxyellipticinium chloride], for which the “effect on actin-F elongation rate constant and actin-F steady state value” in data set [1] (NIH 3T3 EF cytosolic fractions) is “increases the actin-F elongation rate constant and the actin-F steady state value”. For the same compound, the “k (rate constant of F-actin elongation)” value in data set [1] (compound at 100 nM) came to 0.1636 s⁻¹; in data set [1] (compound at 200 nM), 0.1737 s⁻¹. Moreover, the figures for the “Δ mA (anisotropy enhancement, steady state F-actin)” value in data set [1] (compound at 100 nM) and in data set [1] (compound at 200 nM) were 52.38 and 61.17, respectively. Also, the IC50 with B16F10 [2] (B16F10, 3 days, read-out: Cytotoxic effect (MTT) IC50) turned out to be 0.5 µM; in the data set on B16F10 [3] (B16F10, read-out: Inhibition of colony formation (methylcellulose) IC50) it was 0.035 µM. In addition, the “decrease of dose when used in combination with retinoids for the same results” value in data set [4] (100 nM alone vs 1 pM in the presence of ATRA 10 nM) is listed as 100 000 fold. Further, the “tumoral cell viability inhibition (MTT)” value in data set [4] (lower doses in the presence of 10 nM retinoids (13CRA, ATRA)) is “increased tumoral cell viability inhibition”.

On to `CS(=O)(=O)[O-].Cc1c2cc[n+](CCN3CCCCC3)cc2c(C)c2c1[nH]c1ccc(O)cc12` [BA016FZ539, 2-(betapiperidino-2-ethyl)-9-hydroxyellipticinium methanesulfonate], for which the IC50 in the data set with Mia Paca-2 (MIA PaCA-2, viability 72 h, mean +/− SEM (Example 9), read-out: IC50 (μM) SRB) was 10.2 µM; in the data set on Mia Paca-2 (Mia Paca-2 (Example 11), read-out: IC50 (SRB Test-72 h)) it was 5.6 µM; in the data set with PANC-1 (PANC-1 (Example 11), read-out: IC50 (SRB Test-72 h)), 50.4 µM; in the data set on PANC-1 (PANC-1, viability 72 h, mean +/− SEM (Example 9), read-out: IC50 (μM) SRB), 20.7 µM; with B16F10 [2] (B16F10 (Example 11), read-out: IC50 (MTT Test-72 h)), 2 µM; in the data set on B16F10 [3] (B16F10, clones counted after 9 days (Example 11), listed as Monomesylate, read-out: B16F10 Inhibition of colony formation IC50) it was 0.067 µM.
